The source of these data is patent publication EP2601963B1, “N-ISOVALEROYL-L-GLUTAMYL-L-TRYPTOPHAN AS AN AGENT INHIBITING THE FORMATION OF ULCERS IN THE STOMACH AND THE DUODENUM” (Obshestvo S Ogranichennoj Otvetstvennostju "CytoNIR", priority 2010, dated 2015).

The test system of assay [1] is indomethacin-induced ulcers. Nature of the assay: Indomethacin-induced ulcer model, therapeutic treatment: healing of gastric lesions. More on the design: key to gastroprotective activity (first value, GA1) / GA1 (gastroprotective activity calculated for number of lesions): GA1 = PI of control group / PI of experimental group; key to gastroprotective activity (second value, GA2): GA2 = UI of control group / UI of experimental group; key to Ulcer Index: UI = average lesion area in group × % animals with lesions / 100; Lesion Size: unit not given here. The assay is classed as in vivo, male Wistar rats. The method, then:
(§1) All studies were conducted on male Wistar rats weighing 220 ± 20 g, obtained from Rappolovo nursery (Leningrad oblast). For 14 days prior to the experiment, the animals were held in isolation. The animals were handled in accordance with the European Convention for the Protection of Vertebrate Animals used for Experimental and Other Scientific Purposes (Strasburg, 1986). The animals were held in standard plastic cages and fed a standard diet of PK120-3 (granulated feed in accordance with order # 1179 M3 USSR 10/10/1983) with a free access to water.
(§2) Animals' body weight changes were monitored throughout the experiment. The experimental animals were then sacrificed by decapitation, and their blood was collected in test tubes. The stomachs were extracted, dissected along the major curve, rinsed with cold saline solution, and the mucosa was carefully examined through a magnifying glass under bright lights. The mucosa was inspected for color, the presence of hyperemia and its intensity. The number of lesions, which were differentiated into small round (less than 1 mm), linear, and large lesions (more than 1mm) and the size of the area they covered were calculated. The average number of lesions per one animal in a group and the percentage of animals with ulcers were also calculated. Pauls Index (PI) was used as an integral indicator of the number of lesions and was calculated as follows: • PI = average number of lesions in a group x % of animals with lesions/100 [Pauls F., Wick A.M.,Mac. Key E.M. et al. An assau method for anti ulcer substances // Gastroenterology.- 1947. #8.- p.p.774 - 782]. Ulcer index UI was calculated as: UI = average lesion area size in the group x % of animals with lesions/100; gastroprotective activity GA1 was calculated as: GA1 = PI of the control group/PI of the experimental group, GA2 = UI of the control group/UI of the experimental group.
(§3) Five groups of 10 animals per group were prepared for the experiment as described in Example 1.
(§4) In each series of the experiments, the animals were divided into experimental and control groups at 10 animals per group. The proposed medication or a comparator drug were orally administered to the animals in the experimental group, and the control animals were given distilled water in the same amount. • control group received distilled water per os; • experimental group 1 received 0.1 mkg/kg isovaleroyl glutamyl tryptophan; • experimental group 2 received 10 mkg/kg isovaleroyl glutamyl tryptophan; • experimental group 3 received 200 mkg/kg of the comparator drug Sucralfate.
(§5) 2 ml/kg of the ulcerogenic dose of indomethacin equal to 30 mg/kg was administered intraperitoneally. The treatment started 24 hrs. post indomethacin administration and continued for 5 days. The animals in the experimental groups received N-isovaleroyl-L-glutamyl-L-tryptophan or the comparator drug Sucralfate, and the control group received distilled water.

The subject of assay [2] is indomethacin-induced ulcers. The assay is described as above. The assay is classed as in vivo, male Wistar rats. The method, then:
as §1
as §2, with “group. The proposed drug was considered active when GA ≥ 2.” for “group.”
as §3, §4, §5

[3] abbreviates: 0.1 mkg/kg, treatment after Indomethacin.
[4] abbreviates: Indomethacin 30 mg/kg + 10 mkg/kg, treatment 5 days.
[5] abbreviates: Indomethacin 30 mg/kg + 200 mg/kg, treatment 5 days.

In the case of “N-isovaleroyl-L-glutamyl-L-tryptophan [VGT preparation]”, in assay [1] (setting [3]), the “gastroprotective activity (first value, GA1)” value is listed as 2 and the “gastroprotective activity (second value, GA2)” value is given as 2.6. In addition, in assay [1] (setting [4]), the “# Lesions” value is listed as 6.2 ± 1.3, the “% Animals with Ulcers” value is reported as 100%, the “GA1 (gastroprotective activity calculated for number of lesions)” value is on record as 1.4 and the “Lesion Size” value is 23.6 ± 6.1. Moreover, in assay [1] (setting [4]), the PI is 6.2 and the “Ulcer Index” value is on record as 23.6.
On to “aluminum complex of beta-D-fructofuranosyl-alpha-D-glucopyranoside octakis (hydrosulfate) [Sucralfate]”, for which, in assay [2] (setting [5]), the “# Lesions” value was found to be 3.3 ± 1.0, the “% Animals with Ulcers” value was 85.7%, the “GA1 (gastroprotective activity calculated for number of lesions)” value is 3.0 and the “GA2 (gastroprotective activity calculated for lesion size)” value is given as 3.3. In assay [2] (setting [5]), the “Lesion Size” value came to 11.5 ± 4.26, the PI worked out at 2.8 and the “Ulcer Index” value worked out at 9.86. For the same substance, in assay [2] (treatment after Indomethacin), the “animals found to have lesions” value was found to be 85.7%.
